# Measurements from patent publication US20250064844A1 (Emory University, priority 2020, published 2025).
# Read-outs that look alike come from different tables or passages of the source.
# Experiments:
# CEM cells = test: Cell uptake and metabolism of EIDD-2801 in CEM cells; settings: intracellular analyte; CEM cells incubated with EIDD-2801 (40 μM solution prepared), 1-24 hours
# HepG2 cells = test: Cell uptake and metabolism of EIDD-2801 in HepG2 cells; settings: intracellular analyte; HepG2 cells incubated with 20 μM EIDD-2801, 1-24 hours
# Huh-7 cells = test: Cell uptake and metabolism of EIDD-2801 in Huh-7 cells; settings: intracellular analyte; Huh-7 cells incubated with 20 μM EIDD-2801, 1-24 hours
# SARS-CoV2 = test: microbe, parasite or virus in culture; type: cell-based; settings: Severe acute respiratory syndrome coronavirus 2, Vero
# clinical = settings: human, in vivo; for AUC(0-inf): AUCinf
# SARS [1] = test: organism not typed; type: cell-based; settings: Vero C1008, SARS; Vero E6
# HCoV = test: organism not typed; type: cell-based; settings: Vero C1008
# [2] = human, in vivo
# SARS [3] = test: organism not typed; type: cell-based; settings: Vero C1008
# [4] = cynomolgus monkey, in vivo, po
# Vero cells = test: Cell uptake and metabolism of EIDD-2801 in Vero cells; settings: intracellular analyte; Vero cells incubated with 20 μM EIDD-2801, 1-24 hours
smiles,measurement,setting,value
"O=c1nc(NO)ccn1C1OC(CO)C(O)C1O (stereo not shown) [EIDD-1931, 1-(3,4-dihydroxy-5-(hydroxymethyl)tetrahydrofuran-2-yl)-4-(hydroxyamino)pyrimidin-2-one]",AUC0−>t,CEM cells,5.8 pmol · h/M cells
same,Cmax,CEM cells,0.3 pmol/M Cells
same,AUC0−>t,HepG2 cells,249.8 pmol · h/M cells
same,Cmax,HepG2 cells,13.4 pmol/M Cells
same,AUC0−>t,Huh-7 cells,449.2 pmol · h/M cells
same,Cmax,Huh-7 cells,29.0 pmol/M Cells
same,EC50,SARS-CoV2,300 nM
same,AUC(0-inf),clinical; 50 mg,461 ng·h/mL
same,AUC(0-t),"clinical; 50 mg, AUClast",444 ng·h/mL
same,AUC(0-t),"clinical; 50 mg, AUCt",461 ng·h/mL
same,Cmax,clinical; 50 mg,223 ng/mL
same,half-life,"clinical; 50 mg, t1/2",0.937 h
same,Tmax,"clinical; 50 mg, tmax",1 h
same,AUC(0-inf),clinical; 100 mg,855 ng·h/mL
same,AUC(0-t),"clinical; 100 mg, AUClast",835 ng·h/mL
same,AUC(0-t),"clinical; 100 mg, AUCt",854 ng·h/mL
same,Cmax,clinical; 100 mg,395 ng/mL
same,half-life,"clinical; 100 mg, t1/2",0.918 h
same,Tmax,"clinical; 100 mg, tmax",1.25 h
same,AUC(0-inf),clinical; 200 mg,1660 ng·h/mL
same,AUC(0-t),"clinical; 200 mg, AUClast",1720 ng·h/mL
same,AUC(0-t),"clinical; 200 mg, AUCt",1730 ng·h/mL
same,Cmax,clinical; 200 mg,742 ng/mL
same,half-life,"clinical; 200 mg, t1/2",1.09 h
same,Tmax,"clinical; 200 mg, tmax",1.5 h
same,AUC(0-inf),clinical; 300 mg,3090 ng·h/mL
same,AUC(0-t),"clinical; 300 mg, AUClast",2980 ng·h/mL
same,AUC(0-t),"clinical; 300 mg, AUCt",2960 ng·h/mL
same,Cmax,clinical; 300 mg,1100 ng/mL
same,half-life,"clinical; 300 mg, t1/2",1.71 h
same,Tmax,"clinical; 300 mg, tmax",1.5 h
same,AUC(0-inf),clinical; 400 mg,3800 ng·h/mL
same,AUC(0-t),"clinical; 400 mg, AUClast",3730 ng·h/mL
same,AUC(0-t),"clinical; 400 mg, AUCt",3710 ng·h/mL
same,Cmax,clinical; 400 mg,1470 ng/mL
same,half-life,"clinical; 400 mg, t1/2",1.2 h
same,Tmax,"clinical; 400 mg, tmax",1.5 h
same,AUC(0-inf),clinical; 600 mg,6680 ng·h/mL
same,AUC(0-t),"clinical; 600 mg, AUClast",7250 ng·h/mL
same,AUC(0-t),"clinical; 600 mg, AUCt",7110 ng·h/mL
same,Cmax,clinical; 600 mg,2240 ng/mL
same,half-life,"clinical; 600 mg, t1/2",1.16 h
same,Tmax,"clinical; 600 mg, tmax",1.75 h
same,AUC(0-inf),clinical; 800 mg,8200 ng·h/mL
same,AUC(0-t),"clinical; 800 mg, AUClast",8450 ng·h/mL
same,AUC(0-t),"clinical; 800 mg, AUCt",8330 ng·h/mL
same,Cmax,clinical; 800 mg,2970 ng/mL
same,Tmax,"clinical; 800 mg, tmax",1.5 h
same,half-life,clinical; mean t1/2,0.918 to 1.18 h
same,Tmax,clinical; median tmax,1 to 1.75 h
same,AUC(0-inf),"clinical; po, 50 mg",432 ng·h/mL
same,AUC(0-t),"clinical; po, 50 mg, AUClast",415 ng·h/mL
same,Cmax,"clinical; po, 50 mg",223 ng/mL
same,half-life,"clinical; po, 50 mg, t1/2",0.945 h
same,Tmax,"clinical; po, 50 mg, tmax (median)",1 h
same,AUC(0-inf),"clinical; po, 100 mg",932 ng·h/mL
same,AUC(0-t),"clinical; po, 100 mg, AUClast",917 ng·h/mL
same,Cmax,"clinical; po, 100 mg",454 ng/mL
same,half-life,"clinical; po, 100 mg, t1/2",0.907 h
same,Tmax,"clinical; po, 100 mg, tmax (median)",1 h
same,AUC(0-inf),"clinical; po, 200 mg",1830 ng·h/mL
same,AUC(0-t),"clinical; po, 200 mg, AUClast",1810 ng·h/mL
same,Cmax,"clinical; po, 200 mg",926 ng/mL
same,half-life,"clinical; po, 200 mg, t1/2",1.02 h
same,Tmax,"clinical; po, 200 mg, tmax (median)",1 h
same,AUC(0-inf),"clinical; po, 400 mg",4010 ng·h/mL
same,AUC(0-t),"clinical; po, 400 mg, AUClast",4000 ng·h/mL
same,Cmax,"clinical; po, 400 mg",1850 ng/mL
same,half-life,"clinical; po, 400 mg, t1/2",1.03 h
same,Tmax,"clinical; po, 400 mg, tmax (median)",1 h
same,AUC(0-inf),"clinical; po, 600 mg",6130 ng·h/mL
same,AUC(0-t),"clinical; po, 600 mg, AUClast",6120 ng·h/mL
same,Cmax,"clinical; po, 600 mg",2720 ng/mL
same,half-life,"clinical; po, 600 mg, t1/2",1.06 h
same,Tmax,"clinical; po, 600 mg, tmax (median)",1 h
same,AUC(0-inf),"clinical; po, 800 mg",8740 ng·h/mL
same,AUC(0-t),"clinical; po, 800 mg, AUClast",8720 ng·h/mL
same,Cmax,"clinical; po, 800 mg",3640 ng/mL
same,half-life,"clinical; po, 800 mg, t1/2",1.29 h
same,Tmax,"clinical; po, 800 mg, tmax (median)",1 h
same,AUC(0-inf),"clinical; po, 1200 mg",13800 ng·h/mL
same,AUC(0-t),"clinical; po, 1200 mg, AUClast",13800 ng·h/mL
same,Cmax,"clinical; po, 1200 mg",4500 ng/mL
same,half-life,"clinical; po, 1200 mg, t1/2",1.81 h
same,Tmax,"clinical; po, 1200 mg, tmax (median)",1.75 h
same,AUC(0-inf),"clinical; po, 1600 mg",20700 ng·h/mL
same,AUC(0-t),"clinical; po, 1600 mg, AUClast",20700 ng·h/mL
same,Cmax,"clinical; po, 1600 mg",6350 ng/mL
same,half-life,"clinical; po, 1600 mg, t1/2",4.59 h
same,Tmax,"clinical; po, 1600 mg, tmax (median)",1.5 h
same,half-life,"clinical; po, geometric mean terminal elimination half-lives (t1/2)",0.91 to 1.29 h
same,Tmax,"clinical; po, median tmax",1 h
same,EC50,SARS [1],< 800 nM
same,EC50,HCoV,< 400 nM
same,"Slope (90% Confidence Interval) of power model, AUCinf",[2],"1.07 (1.02, 1.13)"
same,"Slope (90% Confidence Interval) of power model, AUClast",[2],"1.09 (1.03, 1.15)"
same,"Slope (90% Confidence Interval) of power model, Cmax",[2],"1.01 (0.927, 1.08)"
same,"Slope of power model, AUCinf",[2],1.10
same,"Slope of power model, AUClast",[2],1.11
same,"Slope of power model, AUCt",[2],1.08
same,"delay of median tmax, capsule vs solution formulation",[2],up to 0.75 hours
same,dose excreted in urine as EIDD-1931,[2],0.854-3.61%
same,geometric mean accumulation ratio based on AUCt,[2],0.938-1.16
same,geometric mean accumulation ratio based on Cmax,[2],0.843-1.10
same,"geometric mean ratio of AUCinf, capsule (multiple-dose cohorts Day 1) vs solution (single-dose cohorts)",[2],0.91-1.09
same,"geometric mean ratio of Cmax, capsule vs solution formulation",[2],0.76-1.00
same,RAcmax (accumulation ratio),[2]; 50 mg,0.843
same,RAcmax (accumulation ratio),[2]; 100 mg,1.10
same,FEAUC/inf (ratio of AUCinf fed:fasted),[2]; 200 mg,0.955
same,FECmax (ratio of Cmax fed:fasted),[2]; 200 mg,0.644
same,RAcmax (accumulation ratio),[2]; 200 mg,0.969
same,mean Cmax lower in the fed state compared to the fasted state,[2]; 200 mg,approximately 36%
same,RAcmax (accumulation ratio),[2]; 300 mg,0.861
same,RAcmax (accumulation ratio),[2]; 400 mg,0.962
same,RAcmax (accumulation ratio),[2]; 600 mg,1.04
same,RAcmax (accumulation ratio),[2]; 800 mg,1.09
same,t1/2,[2]; 800 mg,7.08¶ h
same,EC90,SARS [3],< 800 nM
same,bioavailability,[4],low bioavailability
same,AUC0−>t,Vero cells,228.6 pmol · h/M cells
same,Cmax,Vero cells,13.5 pmol/M Cells
